Reference: ChEMBL document CHEMBL1201862, “PubChem BioAssay data set” (2004)
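Dose response: 5 concentrations. Exposure: 48 h. Format: 96-well plates. Endpoint: linear interpolation; highest concentration if not reached. Abbreviation: GI50, concentration required for 50% inhibition of growth.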 The source made the active and inactive calls. Cut-off read from the data, not from the text of the source: active = GI50 up to about 1.1 µM and inactive = higher.

Experiments:
Assay in all cases: NCI anticancer screen, dose series, 48 h
NCI-H23 = tested on: NCI-H23
T47D = tested on: T47D
SNB-75 = tested on: SNB-75
TK-10 = tested on: TK-10
CAKI-1 = tested on: CAKI-1
SNB-19 = tested on: SNB-19
OVCAR-8 = tested on: OVCAR-8
RPMI-8226 = tested on: RPMI-8226
K562 = tested on: K562
HCT-116 = tested on: HCT-116
RXF 393 = tested on: RXF 393
A549 = tested on: A549
786-0 = tested on: 786-0
COLO 205 = tested on: COLO 205
HL-60 = tested on: HL-60
SF-295 = tested on: SF-295
MDA-N = tested on: MDA-N
UACC-257 = tested on: UACC-257
KM12 = tested on: KM12
SK-OV-3 = tested on: SK-OV-3
CCRF-CEM = tested on: CCRF-CEM
SF-268 = tested on: SF-268
SK-MEL-28 = tested on: SK-MEL-28
UACC-62 = tested on: UACC-62
MOLT-4 = tested on: MOLT-4
MDA-MB-231 = tested on: MDA-MB-231
BT-549 = tested on: BT-549
UO-31 = tested on: UO-31
PC-3 = tested on: PC-3
SF-539 = tested on: SF-539
ACHN = tested on: ACHN
HOP-92 = tested on: HOP-92
OVCAR-4 = tested on: OVCAR-4
MDA-MB-435 = tested on: MDA-MB-435
NCI-H460 = tested on: NCI-H460
HCT-15 = tested on: HCT-15
SW-620 = tested on: SW-620
SR = tested on: SR
M14 = tested on: M14
Malme-3M = tested on: Malme-3M
DU-145 = tested on: DU-145
SN12C = tested on: SN12C
NCI/ADR-RES = tested on: NCI/ADR-RES
EKVX = tested on: EKVX
OVCAR-5 = tested on: OVCAR-5
SK-MEL-5 = tested on: SK-MEL-5
A498 = tested on: A498
IGROV-1 = tested on: IGROV-1
NCI-H522 = tested on: NCI-H522
Hs-578T = tested on: Hs-578T
HT-29 = tested on: HT-29
SK-MEL-2 = tested on: SK-MEL-2
U-251 = tested on: U-251
NCI-H226 = tested on: NCI-H226
OVCAR-3 = tested on: OVCAR-3
MCF7 = tested on: MCF7
HOP-62 = tested on: HOP-62
LOX IMVI = tested on: LOX IMVI

In the case of `CCN(CC)/N=C\c1c2ccccc2cc2ccccc12`, the GI50 (NCI-H23) is reported as 58.9 µM (inactive), the GI50 (T47D) is reported as 42.7 µM (inactive) and the GI50 (SNB-75) is reported as 18.3 µM (inactive). The GI50 (TK-10) was 55 µM (inactive), the GI50 (CAKI-1) was 33 µM (inactive) and the GI50 (SNB-19) was > 100 µM (inactive). For the same molecule, the GI50 (OVCAR-8) was 61.8 µM (inactive), the GI50 (RPMI-8226) was 30.5 µM (inactive) and the GI50 (K562) was 44.9 µM (inactive). The GI50 (HCT-116) was 31.8 µM (inactive), the GI50 (RXF 393) was 17.7 µM (inactive) and the GI50 (A549) was 41.6 µM (inactive). For the same molecule, the GI50 (786-0) was 44.2 µM (inactive), the GI50 (COLO 205) was 23.5 µM (inactive) and the GI50 (HL-60) was 31.7 µM (inactive). For the same molecule, the GI50 (SF-295) was 39 µM (inactive), the GI50 (MDA-N) was 39 µM (inactive) and the GI50 (UACC-257) was 27.9 µM (inactive). The GI50 (KM12) was 30.8 µM (inactive), the GI50 (SK-OV-3) was > 100 µM (inactive) and the GI50 (CCRF-CEM) was 31.3 µM (inactive). For the same molecule, the GI50 (SF-268) was 72.8 µM (inactive), the GI50 (SK-MEL-28) was 11.9 µM (inactive) and the GI50 (UACC-62) was 53.6 µM (inactive). The GI50 (MOLT-4) was 21 µM (inactive), the GI50 (MDA-MB-231) was 24.9 µM (inactive) and the GI50 (BT-549) was 84.7 µM (inactive). For the same molecule, the GI50 (UO-31) was 48.8 µM (inactive), the GI50 (PC-3) was 41.1 µM (inactive) and the GI50 (SF-539) was > 100 µM (inactive). The GI50 (ACHN) was 96.8 µM (inactive), the GI50 (HOP-92) was 24.4 µM (inactive) and the GI50 (OVCAR-4) was 54.3 µM (inactive). For the same molecule, the GI50 (MDA-MB-435) was 34.7 µM (inactive), the GI50 (NCI-H460) was 30.7 µM (inactive) and the GI50 (HCT-15) was 34.6 µM. For the same molecule, the GI50 (SW-620) was 29 µM (inactive), the GI50 (SR) was 26.6 µM (inactive) and the GI50 (M14) was 22 µM (inactive). The GI50 (Malme-3M) was 49.8 µM (inactive), the GI50 (DU-145) was 82 µM (inactive) and the GI50 (SN12C) was 48.5 µM (inactive). The GI50 (NCI/ADR-RES) was 79.4 µM (inactive), the GI50 (EKVX) was 38.4 µM (inactive) and the GI50 (OVCAR-5) was 37.5 µM (inactive). The GI50 (SK-MEL-5) was 21.8 µM (inactive), the GI50 (A498) was 41 µM (inactive) and the GI50 (IGROV-1) was 39.4 µM (inactive). The GI50 (NCI-H522) was 21 µM (inactive), the GI50 (Hs-578T) was 48 µM (inactive) and the GI50 (HT-29) was 25 µM (inactive). The GI50 (SK-MEL-2) was 27.9 µM (inactive) and the GI50 (U-251) was 24.5 µM (inactive).

`COc1ccc(C(=C(Cl)c2ccccc2)c2ccc(OC)cc2)cc1` was tested, and the GI50 (NCI-H23) was > 100 µM (inactive), the GI50 (T47D) was 16.1 µM (inactive) and the GI50 (TK-10) was > 100 µM (inactive). For the same molecule, the GI50 (CAKI-1) was > 100 µM (inactive), the GI50 (NCI-H226) was > 100 µM (inactive) and the GI50 (SNB-19) was > 100 µM (inactive). The GI50 (OVCAR-8) was > 100 µM (inactive), the GI50 (RPMI-8226) was 35.1 µM (inactive) and the GI50 (K562) was > 100 µM (inactive). The GI50 (HCT-116) was 48.1 µM (inactive), the GI50 (RXF 393) was > 100 µM (inactive) and the GI50 (A549) was > 100 µM (inactive). The GI50 (786-0) was > 100 µM (inactive), the GI50 (OVCAR-3) was > 100 µM (inactive) and the GI50 (COLO 205) was > 100 µM (inactive). The GI50 (HL-60) was 57.8 µM (inactive), the GI50 (SF-295) was > 100 µM (inactive) and the GI50 (MDA-N) was > 100 µM (inactive). For the same molecule, the GI50 (MCF7) was > 100 µM (inactive), the GI50 (UACC-257) was 86.5 µM (inactive) and the GI50 (KM12) was > 100 µM (inactive). The GI50 (SK-OV-3) was > 100 µM (inactive), the GI50 (CCRF-CEM) was > 100 µM (inactive) and the GI50 (SF-268) was > 100 µM (inactive). For the same molecule, the GI50 (SK-MEL-28) was > 100 µM (inactive), the GI50 (HOP-62) was > 100 µM (inactive) and the GI50 (UACC-62) was > 100 µM (inactive). For the same molecule, the GI50 (MOLT-4) was > 100 µM (inactive), the GI50 (MDA-MB-231) was > 100 µM (inactive) and the GI50 (BT-549) was > 100 µM (inactive). For the same molecule, the GI50 (UO-31) was > 100 µM (inactive), the GI50 (PC-3) was > 100 µM (inactive) and the GI50 (SF-539) was > 100 µM (inactive). The GI50 (ACHN) was > 100 µM (inactive), the GI50 (HOP-92) was > 100 µM (inactive) and the GI50 (OVCAR-4) was > 100 µM (inactive). The GI50 (MDA-MB-435) was > 100 µM (inactive), the GI50 (NCI-H460) was > 100 µM (inactive) and the GI50 (HCT-15) was > 100 µM. The GI50 (SW-620) was > 100 µM (inactive), the GI50 (M14) was > 100 µM (inactive) and the GI50 (Malme-3M) was > 100 µM (inactive). The GI50 (DU-145) was > 100 µM (inactive), the GI50 (SN12C) was > 100 µM (inactive) and the GI50 (NCI/ADR-RES) was > 100 µM (inactive). For the same molecule, the GI50 (EKVX) was > 100 µM (inactive), the GI50 (OVCAR-5) was > 100 µM (inactive) and the GI50 (SK-MEL-5) was 79.3 µM (inactive). The GI50 (LOX IMVI) was > 100 µM (inactive), the GI50 (A498) was > 100 µM (inactive) and the GI50 (IGROV-1) was > 100 µM (inactive). The GI50 (NCI-H522) was 84.3 µM (inactive), the GI50 (Hs-578T) was > 100 µM (inactive) and the GI50 (HT-29) was 11.9 µM (inactive). For the same molecule, the GI50 (SK-MEL-2) was > 100 µM (inactive) and the GI50 (U-251) was > 100 µM (inactive).
